This note sets out measurements from US20100267774A1, “P38 MAP KINASE INHIBITORS” (CHROMA THERAPEUTICS LTD., priority 2007, published 2010).

Assay [1] deals with T1, p38 MAP Kinase a (Homo sapiens, UniProt Q16539).
T1 construct: purchased Upstate (Dundee UK)
The experiment in a line: p38 MAP Kinase activity, radiometric filter-binding assay (Upstate). Type of assay: biochemical.

Assay [2] has as its system phosphorylation of MAPKAP-2 in U937 cells. The experiment in a line: Cellular assay for the phosphorylation of MAPKAP-2 by p38 in U937 cells. Type of assay: cell-based. The conditions noted are these: Homo sapiens, U-937; macrophage cell line U937; anisomycin 10 μM; read-out: Inhibition of phosphorylation of MAPKAP-2 in U937 cells (IC50). As to the method: U937 or HUT78 cells were plated in RPMI 1640, and were incubated at 37° C., 5% CO2 for 18 hours. 10 mM stocks of compounds were diluted media/0.1% DMSO to give a log or semi-log dilution series. The wells for ‘no treatment’ and ‘anisomycin’ were treated with 0.1% DMSO only. The cells were incubated at 37° C., 5% CO2 for a further 4 hours. Anisomycin was added to all wells except ‘no treatment’ at a final concentration of 10 μM. The cells were incubated at 37° C., 5% CO2 for 30 minutes before harvest. Plates were stood on ice whilst harvesting, and all the following steps were carried out at 4° C. The cells were pelleted at 1000 rpm for 10 minutes at 4° C., the media aspirated, and the pellet washed with cold PBS. The pellets were lysed in 120 μl of SDS lysis buffer (62.5 mM Tris, pH 6.8, 2% SDS, 10% glycerol, 50 mM DTT, with protease inhibitors and phosphatase inhibitors added according to the manufacturers' recommendations). […]
In cells, p38 activity leads to the phosphorylation of the protein MAPKAP-2 and thus one method to assess the inhibition of p38 inside cells is to look at the decrease in the levels of phosphorylated MAPKAP-2. Table 1 lists the IC50s as measured by the level of MAPKAP-2 phosphorylation in a macrophage cell line (U937) and non-macrophage cell line (HUT78). […]

Assay [3] concerns phosphorylation of MAPKAP-2 in HUT 78 cells. The experiment in a line: Cellular assay for the phosphorylation of MAPKAP-2 by p38 in HUT 78 cells. Type of assay: cell-based. The conditions noted are these: for IC50: Homo sapiens, HuT78, non-macrophage cell line HUT 78, anisomycin 10 μM, read-out: Inhibition of phosphorylation of MAPKAP-2 in HUT 78 cells (IC50); for Ratio IC50s in HUT 78 to U937 cells: macrophage selectivity. As to the method:
U937 or HUT78 cells were plated in RPMI 1640, and were incubated at 37° C., 5% CO2 for 18 hours. 10 mM stocks of compounds were diluted media/0.1% DMSO to give a log or semi-log dilution series. The wells for ‘no treatment’ and ‘anisomycin’ were treated with 0.1% DMSO only. The cells were incubated at 37° C., 5% CO2 for a further 4 hours. Anisomycin was added to all wells except ‘no treatment’ at a final concentration of 10 μM. The cells were incubated at 37° C., 5% CO2 for 30 minutes before harvest. Plates were stood on ice whilst harvesting, and all the following steps were carried out at 4° C. The cells were pelleted at 1000 rpm for 10 minutes at 4° C., the media aspirated, and the pellet washed with cold PBS. The pellets were lysed in 120 μl of SDS lysis buffer (62.5 mM Tris, pH 6.8, 2% SDS, 10% glycerol, 50 mM DTT, with protease inhibitors and phosphatase inhibitors added according to the manufacturers' recommendations). After 30 minutes on ice, the samples were sonicated for 5 seconds before centrifugation at 13,000 rpm 4° C. for 10 minutes to remove cell debris. 10 μl of the resulting gel samples were loaded per lane on NOVEX 4-12% Bis-Tris MOPS gels. Membranes from western transfer of gels were blotted with anti-phospho MAPKAP-2, anti-phospho HSP27 and anti-GAPDH according to the manufacturers' instructions. Signal was visualised using HRP-linked anti-rabbit or anti-mouse antibodies, ECL reagent and ECL film. IC50 values for the various compounds were visualised from the resulting photographic images, using both band-shift and signal intensity.
In cells, p38 activity leads to the phosphorylation of the protein MAPKAP-2 and thus one method to assess the inhibition of p38 inside cells is to look at the decrease in the levels of phosphorylated MAPKAP-2. Table 1 lists the IC50s as measured by the level of MAPKAP-2 phosphorylation in a macrophage cell line (U937) and non-macrophage cell line (HUT78). […] In contrast, example 33 that has an esterase motif that would be expected to confer macrophage selectivity, has an activity in the macrophage cell line (U937) which is 100 fold greater than in the non-macrophage cell line (HUT 78).

The test system of assay [4] is THP-1 TNFα release. The assay can be described thus: LPS-stimulation of THP-1 cells, TNF-α release by ELISA. Type of assay: cell-based. The following applies: Homo sapiens, THP-1, 6 h; read-out: Inhibitor activity versus THP-1 TNFα release. Here is the method: THP-1 cells were plated in 100 μl at a density of 4×10^4 cells/well in V-bottomed 96 well tissue culture treated plates and incubated at 37° C. in 5% CO2 for 16 hrs. 2 hrs after the addition of the inhibitor in 100 μl of tissue culture media, the cells were stimulated with LPS (E coli strain 005:B5, Sigma) at a final concentration of 1 μg/ml and incubated at 37° C. in 5% CO2 for 6 hrs. TNF-α levels were measured from cell-free supernatants by sandwich ELISA (R&D Systems #QTA00B).
A general note: In an ELISA, binding on a coated surface is turned into a signal by an enzyme label.

Where [5] appears, read: compound as such (Example 33: Ester), read-out: Inhibition of P38α (IC50 nM).
Setting [6] is: IC50 range, read-out: Inhibitor activity versus p38 MAPKa.

Like-named read-outs stand apart in the source and are kept apart here.

T1 sequence (Q16539 whole entry): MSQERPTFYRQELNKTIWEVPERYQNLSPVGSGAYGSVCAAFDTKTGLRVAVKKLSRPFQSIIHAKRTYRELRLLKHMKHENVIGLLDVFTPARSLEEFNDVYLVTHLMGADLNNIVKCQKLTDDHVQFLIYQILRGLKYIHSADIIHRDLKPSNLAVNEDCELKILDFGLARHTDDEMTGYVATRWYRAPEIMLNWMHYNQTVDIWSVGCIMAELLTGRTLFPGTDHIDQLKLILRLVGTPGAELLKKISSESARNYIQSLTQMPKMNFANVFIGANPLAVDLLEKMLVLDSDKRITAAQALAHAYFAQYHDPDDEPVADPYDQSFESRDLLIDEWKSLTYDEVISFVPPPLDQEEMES

As for `Nc1c(C(=O)c2ccc(F)cc2F)ccc(=O)n1-c1c(F)cccc1F` [Compound I, reference compound], the IC50 in assay [1] (setting [5]) stood at 47 nM; in assay [2], 9 nM; in assay [3], 10 nM. Besides, in assay [3] (MAPKAP-2 phosphorylation), the “Ratio IC50s in HUT 78 to U937 cells” value was found to be 1.1.
In the case of `CC(C)C[C@H](NCCc1cc(F)c(-n2c(N)c(C(=O)c3ccc(F)cc3F)ccc2=O)c(F)c1)C(=O)OC1CCCC1` [Example 33, cyclopentyl N-(2-{4-[6-amino-5-(2,4-difluorobenzoyl)-2-oxopyridin-1(2H)-yl]-3,5-difluorophenyl}ethyl)-L-leucinate], the IC50 in assay [1] (Acid (carboxylic acid of the ester), read-out: Inhibition of P38α (IC50 nM)) is 0.5 nM; in assay [1] (setting [6]) it was 100 to 1000 nM; in assay [1] (setting [5]), 100 nM; in assay [4], less than 100 nM; in assay [2], 0.7 nM; in assay [3] it was 73 nM. In addition, the “activity in the macrophage cell line (U937) greater than in the non-macrophage cell line (HUT 78)” value in assay [3] (MAPKAP-2 phosphorylation) is recorded as 100 fold. Besides, the “Ratio IC50s in HUT 78 to U937 cells” value in assay [3] (MAPKAP-2 phosphorylation) came out at 112.
On to `COc1ccc([C@H](NCCc2cc(F)c(-n3c(N)c(C(=O)c4ccc(F)cc4F)ccc3=O)c(F)c2)C(=O)OC2CCCC2)cc1` [Example 46, Cyclopentyl (2S)-{[2-(4-{6-amino-5-[(2,4-difluorophenyl)carbonyl]-2-oxopyridin-1(2H)-yl}-3,5-difluorophenyl)ethyl]amino}(4-methoxyphenyl)ethanoate], for which the IC50 in assay [1] (setting [6]) and in assay [4] was less than 100 nM throughout.
As for `CC(C)C[C@H](NCCc1ccc(-n2c(N)c(C(=O)c3ccc(F)cc3F)ccc2=O)s1)C(=O)OC1CCCC1` [Example 49, Cyclopentyl N-(2-{5-[6-amino-5-(2,4-difluorobenzoyl)-2-oxopyridin-1(2H)-yl]-2-thienyl}ethyl)-L-leucinate], the IC50 in assay [1] (setting [6]) was 100 to 1000 nM; in assay [4], less than 100 nM.
